Test results from paper PMC3327805 (Journal of Molecular Biology, 2012).

Target: PBPA (penicillin-binding protein A) (Mycobacterium tuberculosis, UniProt P9WKD1)
Sequence (P9WKD1 34-491): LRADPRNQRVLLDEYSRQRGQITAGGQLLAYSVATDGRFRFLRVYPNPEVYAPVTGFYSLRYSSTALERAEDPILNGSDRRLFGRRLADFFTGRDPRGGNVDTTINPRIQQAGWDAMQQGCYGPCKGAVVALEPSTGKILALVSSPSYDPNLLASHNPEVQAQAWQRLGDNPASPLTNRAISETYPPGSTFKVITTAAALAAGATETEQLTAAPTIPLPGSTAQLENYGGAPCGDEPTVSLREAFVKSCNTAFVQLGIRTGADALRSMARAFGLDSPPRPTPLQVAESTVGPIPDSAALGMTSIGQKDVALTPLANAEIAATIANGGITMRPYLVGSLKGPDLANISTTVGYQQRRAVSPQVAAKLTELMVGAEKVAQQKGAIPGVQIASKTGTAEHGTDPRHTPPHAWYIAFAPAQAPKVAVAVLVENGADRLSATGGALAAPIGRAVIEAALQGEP

## C[C@@H](O)[C@H]1C(=O)N2C(C(=O)O)=C(SCCN=CN)C[C@H]12 [Imipenem]
  Method / Intrinsic fluorescence: 3,980 ± 180 M^-1 sec^-1
